Test systems include LOX IMVI; CCRF-CEM; SF-539; BT-549; SF-268; SK-MEL-5; UACC-257; Malme-3M; CAKI-1; HL-60; MCF7; U-251; MDA-N; MDA-MB-231; SK-MEL-2; SN12C; MDA-MB-435; SNB-19; HOP-62; SNB-75.
What all share (test): inhibition of tumour cell growth, NCI panel, 48 h

Molecules are shown by their SMILES.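 Cultured in 96-well plates, cells were exposed to test compound for 48 hours across five concentrations. At the GI50, growth is halved.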 Active and inactive are the calls of the source. Cut-off read from the data, not from the text of the source: active = GI50 up to about 1.1 µM and inactive = higher.

Consider `CC(=O)c1sc2c(c1OC(=O)c1ccccc1)c(=O)n(-c1ccccc1)c(=S)n2-c1ccccc1`, for which the GI50 with LOX IMVI was 2.26 µM (inactive); with CCRF-CEM, 2.51 µM (inactive); in the assay on SF-539 it was 2.32 µM (inactive); in the assay with BT-549, > 10 µM (inactive); in the assay on SF-268 it was 4.97 µM (inactive); in the assay with SK-MEL-5, 5.62 µM (inactive). Further, the GI50 was 4.38 µM (inactive) with UACC-257; 2.46 µM (inactive) in the assay on Malme-3M; 8.43 µM (inactive) in the assay with CAKI-1; 34 µM (inactive) with HL-60; 35.7 µM (inactive) in the assay with MCF7; 3.94 µM (inactive) in the assay on U-251. Also, the GI50 in the assay on MDA-N is 6.4 µM (inactive); in the assay on MDA-MB-231 it was 7.93 µM (inactive); in the assay on SK-MEL-2 it was 2.79 µM (inactive); in the assay with SN12C, 5.78 µM (inactive); in the assay with MDA-MB-435 it was 4.24 µM (inactive); in the assay on SNB-19, 4.84 µM (inactive). Also, the GI50 in the assay on HOP-62 is 15 µM (inactive); with SNB-75, 2.26 µM (inactive).
In the case of `CCC(C#N)N(Cc1ccc(CN(C(=O)c2ccccc2)C(C#N)CC)cc1)C(=O)c1ccccc1` (stereo not given), the GI50 in the assay on LOX IMVI was 15.9 µM (inactive); in the assay with CCRF-CEM it was 17.8 µM (inactive); in the assay on SF-539, 18.6 µM (inactive); in the assay with BT-549, 27.5 µM (inactive); in the assay on SF-268, 29.4 µM (inactive); in the assay with SK-MEL-5, 12.8 µM (inactive). The GI50 was 16.6 µM (inactive) in the assay on UACC-257; 31.6 µM (inactive) in the assay with Malme-3M; 24.3 µM (inactive) in the assay on CAKI-1; 29.8 µM (inactive) in the assay with HL-60; 19.2 µM (inactive) in the assay on MCF7; 22.6 µM (inactive) in the assay on U-251. Moreover, the GI50 was 32.4 µM (inactive) in the assay with MDA-N; 23.7 µM (inactive) with MDA-MB-231; 21.7 µM (inactive) in the assay with SK-MEL-2; 27.1 µM (inactive) in the assay on SN12C; 25.5 µM (inactive) in the assay on MDA-MB-435; 27 µM (inactive) in the assay with SNB-19. In addition, the GI50 is 20.9 µM (inactive) with HOP-62 and 22.3 µM (inactive) with SNB-75.
`COc1cccc(C(=O)O[C@H]2[C@@H]3[C@]4(OC(C)=O)CO[C@@H]4C[C@H](O)[C@@]3(C)C(=O)[C@H](OC(C)=O)C3=C(C)[C@@H](OC(=O)[C@H](O)[C@@H](NC(=O)OC(C)(C)C)c4ccco4)C[C@]2(O)C3(C)C)c1`: the GI50 with LOX IMVI is < 0.00375 µM (active); in the assay with CCRF-CEM it was < 0.00375 µM (active); in the assay on SF-539, < 0.00375 µM (active); in the assay with BT-549, 0.0556 µM (active); in the assay with SF-268, < 0.00375 µM (active); in the assay on SK-MEL-5, < 0.00375 µM (active). Further, the GI50 with UACC-257 was 21.3 µM (inactive); in the assay on Malme-3M, 1.47 µM (inactive); in the assay with CAKI-1 it was < 0.00375 µM (active); with HL-60, < 0.00375 µM (active); in the assay with MCF7 it was < 0.00375 µM (active); in the assay on U-251, < 0.00375 µM (active). Moreover, the GI50 with MDA-N is < 0.00375 µM (active); in the assay with MDA-MB-231 it was < 0.00375 µM (active); in the assay with SK-MEL-2, < 0.00375 µM (active); in the assay with SN12C, 0.064 µM (active); with MDA-MB-435, < 0.00375 µM (active); with SNB-19, 0.133 µM (active). In addition, the GI50 in the assay with HOP-62 and in the assay with SNB-75 was < 0.00375 µM (active) in each case.
Regarding `COC(=O)[C@H]1COC(=O)N1`, the GI50 in the assay on LOX IMVI, in the assay on CCRF-CEM, in the assay on SF-539, with BT-549, in the assay on SF-268 and in the assay with SK-MEL-5 was > 100 µM (inactive) each time. Further, the GI50 with UACC-257 was > 100 µM (inactive); in the assay with Malme-3M it was > 100 µM (inactive); in the assay on CAKI-1, > 100 µM (inactive); in the assay with HL-60, 89.7 µM (inactive); with MCF7 it was > 100 µM (inactive); in the assay with U-251, > 100 µM (inactive). The GI50 with MDA-N, in the assay on MDA-MB-231, in the assay with SK-MEL-2, in the assay with SN12C, in the assay with MDA-MB-435 and in the assay with SNB-19 was > 100 µM (inactive) each time. For the same compound, the GI50 in the assay with HOP-62 and in the assay on SNB-75 was > 100 µM (inactive) throughout.
With `CN(c1ccccc1Cl)S(=O)(=O)c1ccccc1[N+](=O)[O-]`, the GI50 is 42.6 µM (inactive) in the assay on LOX IMVI; 33.2 µM (inactive) with CCRF-CEM; 35.9 µM (inactive) in the assay on SF-539; 22.6 µM (inactive) in the assay with BT-549; 55.8 µM (inactive) in the assay on SF-268; 15.3 µM (inactive) with SK-MEL-5. Further, the GI50 is 45.1 µM (inactive) in the assay with UACC-257; 79.6 µM (inactive) with Malme-3M; 48.8 µM (inactive) with CAKI-1; 24 µM (inactive) in the assay with HL-60; > 10 µM (inactive) in the assay on MCF7; 40.6 µM (inactive) in the assay on U-251. Further, the GI50 with MDA-N was 33.9 µM (inactive); with MDA-MB-231, 37.2 µM (inactive); in the assay on SK-MEL-2, 96.6 µM (inactive); in the assay with SN12C, 95.7 µM (inactive); with MDA-MB-435 it was 28.7 µM (inactive); in the assay on SNB-19, 46.9 µM (inactive). Besides, the values for the GI50 with HOP-62 and in the assay on SNB-75 were 41.6 µM (inactive) and 40.6 µM (inactive), respectively.
As to `COc1ccc(-n2c(N)c(C#N)c(C#N)c2-c2ccco2)cc1`, the GI50 in the assay with LOX IMVI is > 100 µM (inactive); in the assay on CCRF-CEM, > 100 µM (inactive); in the assay on SF-539, > 100 µM (inactive); in the assay with BT-549, 9.23 µM (inactive); in the assay with SF-268, > 100 µM (inactive); in the assay with SK-MEL-5, 78.5 µM (inactive). For the same compound, the GI50 in the assay on UACC-257, with Malme-3M, with CAKI-1, in the assay with HL-60, with MCF7 and in the assay with U-251 was > 100 µM (inactive) in each case. Moreover, the GI50 in the assay on MDA-N was 45.5 µM (inactive); with MDA-MB-231, > 100 µM (inactive); in the assay on SK-MEL-2, > 100 µM (inactive); with SN12C, > 100 µM (inactive); in the assay on MDA-MB-435, > 100 µM (inactive); with SNB-19 it was > 100 µM (inactive). Moreover, the GI50 with HOP-62 is 72.1 µM (inactive); with SNB-75 it was 11.9 µM (inactive).

These data come from ChEMBL document CHEMBL1201862, “PubChem BioAssay data set” (2004).
